Reference: PMC7036871, “Identification and Characterization of pantocin wh-1, a Novel Cyclic Polypeptide Produced by Pantoea dispersa W18” (Molecules, 2020)
Where a SMILES comes first, the peptide text is derived from it.

Key:
[1] = target: RNase (Bos taurus, UniProt P61823); assay: Effect of enzymes on antibacterial activity: RNase; assay type: in vitro ADME
Text: (§1) Furthermore, the antibacterial activity of pantocin wh-1 also retained nearly 100% of the initial activity within a broad pH range (pH 2–12).
(§2) The effect of various enzymes, pH, and temperature on pantocin wh-1 activity was detected as described by J.-M. Chobert et al. with a slight modification. Proteinase K, trypsin, catalase, lysozyme, DNAse, and RNAse were used to test the antibacterial activity of pantocinwh-1. To analyze the effect of different pH values on the antibacterial activity of pantocin wh-1, the sample of pantocin wh-1 was exposed to buffer with a pH value of 2–12 for 1 h at 25 °C. The effect of temperature on the anti-mycobacterial activity of pantocin wh-1 was determined by incubating pantocin wh-1 at 50 °C and 100 °C for 60 min, as well as at 121 °C for 15 min, and then detecting the bactericidal activity against M. smegmatis mc^2 155.

[2] = test system: Klebsiella; assay: Antimicrobial spectrum, microporous dilution method; assay type: cell-based
Experimental: (§3) In this paper, the microporous dilution method was used to detect the antibacterial spectrum of pantocin wh-1 against Gram-negative and -positive bacteria. […] The time kill studies were determined over 8 h with M. smegmatis mc^2 155 being exposed to 0.5, 1, 2, or 4 × MIC of pantocin wh-1. […] At 2 × MIC and 4 × MIC, pantocin wh-1 caused bacterial eradication was completed approximately after 4 h.
(§4) The antibacterial activity of the pantocin wh-1 was detected by the microscale optical density assay (MODA) method. Briefly, 90 μL of the dilutions of pantocin wh-1, 100 μL 2 × 7H9 medium, and 10 μL of a log phase indicator strain were co-incubated in the 96-well plate at 37 °C for 48 h. For control groups, 90 μL of the dilutions of pantocin wh-1 were replaced by an equal volume of sterile water. After incubation, the 96 well microplate was measured by a microplate reader at a 600 nm wavelength (Biotek synergyH1, Biotek, Winooski, VT, USA). The amount of pantocin wh-1 produced by P. dispersa W18 was determined using two fold dilutions. […] The results were expressed in AU/mL. The MIC was defined as the last dilution of pantocin wh-1 sufficient to prevent indicator strain growth in vitro.

[3] = test system: M. bovis BCG; assay type: cell-based; parameters: key: -: no inhibitory activity; +: Inhibit the growth of less than 10% amount of the initial bacteria; ++: Inhibit the growth of less than 50% amount of the initial bacteria; +++: Inhibit the growth of initial bacteria completely; settings: medium 7H9
[4] = test system: E. coli O157; assay: Antimicrobial spectrum, microporous dilution method; assay type: cell-based; parameters: key: -: no inhibitory activity; +: Inhibit the growth of less than 10% amount of the initial bacteria; ++: Inhibit the growth of less than 50% amount of the initial bacteria; +++: Inhibit the growth of initial bacteria completely; settings: E. coli O157, medium LB
[5] = Effect of heat on antibacterial activity; assay type: physicochemical; settings: for Residual activity: compared with antimicrobial activity before the treatment
Text: as §1
as §2, with “[…],” for “anti-mycobacterial activity of pantocin wh-1 was determined by incubating pantocin wh-1 at 50 °C and 100 °C for 60 min,”

[6] = test system: S. suis; assay: Antimicrobial spectrum, microporous dilution method; assay type: cell-based, Streptococcus suis
Experimental: as §3, §4

[7] = test system: S. aureus B31; assay: as above; assay type: cell-based; parameters: key: -: no inhibitory activity; +: Inhibit the growth of less than 10% amount of the initial bacteria; ++: Inhibit the growth of less than 50% amount of the initial bacteria; +++: Inhibit the growth of initial bacteria completely; settings: S. aureus B31, medium LB
Experimental: as §3, §4

[8] = test system: Dysgalactiae; assay: as above; assay type: cell-based; parameters: key: -: no inhibitory activity; +: Inhibit the growth of less than 10% amount of the initial bacteria; ++: Inhibit the growth of less than 50% amount of the initial bacteria; +++: Inhibit the growth of initial bacteria completely; settings: medium BHI
Experimental: as §3, §4

[9] = test system: Bacillus cereus; assay: as above; assay type: cell-based; parameters: key: -: no inhibitory activity; +: Inhibit the growth of less than 10% amount of the initial bacteria; ++: Inhibit the growth of less than 50% amount of the initial bacteria; +++: Inhibit the growth of initial bacteria completely; settings: medium LB
Experimental: as §3, §4

[10] = test system: S. aureus AM025; assay: as above; assay type: cell-based; parameters: key: -: no inhibitory activity; +: Inhibit the growth of less than 10% amount of the initial bacteria; ++: Inhibit the growth of less than 50% amount of the initial bacteria; +++: Inhibit the growth of initial bacteria completely; settings: S. aureus AM025, medium LB
Experimental: as §3, §4

[11] = as above; assay type: cell-based; parameters: key: -: no inhibitory activity; +: Inhibit the growth of less than 10% amount of the initial bacteria; ++: Inhibit the growth of less than 50% amount of the initial bacteria; +++: Inhibit the growth of initial bacteria completely; settings: White aureus 8799, medium LB
Experimental: as §3, §4

[12] = test system: autoluminescent H37Ra (UAlRa); parameters: species or system BALB/c female mice; settings: mouse, in vivo
[13] = test system: DNase; assay: Effect of enzymes on antibacterial activity: DNase; assay type: in vitro ADME
Text: as §1, §2

Sequence of RNase (P61823 27-150): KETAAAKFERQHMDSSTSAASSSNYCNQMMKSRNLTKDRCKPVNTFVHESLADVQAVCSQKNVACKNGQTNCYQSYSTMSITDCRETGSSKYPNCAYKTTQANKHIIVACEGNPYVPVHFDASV

CSCC[C@@H]1NC(=O)[C@H](C(C)C)NC(=O)[C@H](Cc2c[nH]c3ccccc23)NC(=O)[C@H](C(C)C)NC(=O)[C@H](C)NC(=O)[C@H](CS)NC(=O)[C@H](CC(N)=O)NC(=O)[C@H](Cc2ccccc2)NC(=O)CNC(=O)[C@H](Cc2ccc(O)cc2)NC(=O)CNC(=O)[C@H](Cc2ccccc2)NC(=O)[C@H](C(C)C)NC(=O)[C@H](Cc2ccc(O)cc2)NC(=O)[C@H](CS)NC(=O)[C@H](Cc2c[nH]c3ccccc23)NC1=O [pantocin wh-1] (cyclo(AVWVMWCYVFGYGFNC))
antibacterial activity after RNase A ([1]; RNase A): insensitive
Residual activity ([1]; RNase treatment, compared with antimicrobial activity before the treatment): 100%
inhibitory activity [2]: partial inhibitory activity
Inhibition activity [3]: +++
Inhibition activity [4]: -
Residual activity ([5]; Heat 50℃/ 30 min): 100%
Residual activity ([5]; Heat 100℃/ 30 min): 90%
Residual activity ([5]; Heat 121℃/ 15 min): 72%
retained activity ([5]; autoclaving at 121 °C for 30 min): 72%
heat stability ([5]; incubation at 100 °C for 30 min): heat stable
Inhibition activity ([6]; S. suis, medium BHI): + (Inhibit the growth of less than 10% amount of the initial bacteria)
inhibitory activity ([6]; Streptococcus suis): partial inhibitory activity
Inhibition activity [7]: -
Inhibition activity [8]: -
Inhibition activity [9]: -
Inhibition activity [10]: -
Inhibition activity [11]: -
relative light unit (RLU) value [12]: significant decrease
therapeutic effect compared with streptomycin [12]: did not exceed that of streptomycin
antibacterial activity after DNase I ([13]; DNase I): insensitive
Residual activity ([13]; DNase treatment, compared with antimicrobial activity before the treatment): 100%
